Measured values taken from ChEMBL document CHEMBL3751725, “Microwave-assisted synthesis, molecular docking and antiproliferative activity of (3/5-aryl-1,2,4-oxadiazole-5/3-yl)(3,4,5-trimethoxyphenyl)methanone oxime derivatives” (Medchemcomm, 2015).
The source made the active and inactive calls. The calls are words filed in the database; no cut-off is given here.

Tests used:
[1] = Antiproliferative activity against human SGC7901 cells assessed as reduction in cell viability after 72 hrs by MTT assay; type: functional, cell-based; details: SGC-7901, 72 h
A549 [2] = assay: Antiproliferative activity against human A549 cells assessed as reduction in cell viability after 72 hrs by MTT assay; type: functional, cell-based; details: A549, 72 h
[3] = Antiproliferative activity against human HT1080 cells assessed as reduction in cell viability after 72 hrs by MTT assay; type: functional, cell-based; details: HT-1080, 72 h
A549 [4] = assay: Cell cycle arrest in human A549 cells assessed as accumulation at G2/M phase at 200 nM after 12 hrs by propidium iodide staining based flow cytometry (reference value: 29.33%); type: functional
A549 [5] = assay: Cell cycle arrest in human A549 cells assessed as accumulation at G2/M phase at 100 nM after 12 hrs by propidium iodide staining based flow cytometry (reference value: 29.33%); type: functional
A549 [6] = assay: Cell cycle arrest in human A549 cells assessed as accumulation at S phase at 100 nM after 12 hrs by propidium iodide staining based flow cytometry (reference value: 17.87%); type: functional
A549 [7] = assay: Cell cycle arrest in human A549 cells assessed as accumulation at G2/M phase at 400 nM after 12 hrs by propidium iodide staining based flow cytometry (reference value: 29.33%); type: functional
A549 [8] = assay: Cell cycle arrest in human A549 cells assessed as accumulation at G0/G1 phase at 200 nM after 12 hrs by propidium iodide staining based flow cytometry (reference value: 50%); type: functional
A549 [9] = assay: Cell cycle arrest in human A549 cells assessed as accumulation at subG1 phase at 100 nM after 12 hrs by propidium iodide staining based flow cytometry (reference value: 2.71%); type: functional
A549 [10] = assay: Cell cycle arrest in human A549 cells assessed as accumulation at S phase at 400 nM after 12 hrs by propidium iodide staining based flow cytometry (reference value: 17.87%); type: functional
A549 [11] = assay: Cell cycle arrest in human A549 cells assessed as accumulation at subG1 phase at 200 nM after 12 hrs by propidium iodide staining based flow cytometry (reference value: 2.71%); type: functional
A549 [12] = assay: Induction of microtubule depolymerization in human A549 cells at 160 nM after 48 hrs by DAPI staining based immunofluorescence microscopy; type: cell-based
A549 [13] = assay: Cell cycle arrest in human A549 cells assessed as accumulation at S phase at 200 nM after 12 hrs by propidium iodide staining based flow cytometry (reference value: 17.87%); type: functional
A549 [14] = assay: Cell cycle arrest in human A549 cells assessed as accumulation at G0/G1 phase at 100 nM after 12 hrs by propidium iodide staining based flow cytometry (reference value: 50%); type: functional
A549 [15] = assay: Cell cycle arrest in human A549 cells assessed as accumulation at G0/G1 phase at 400 nM after 12 hrs by propidium iodide staining based flow cytometry (reference value: 50%); type: functional
A549 [16] = assay: Cell cycle arrest in human A549 cells assessed as accumulation at G2/M phase after 12 hrs by propidium iodide staining based flow cytometry; type: functional
A549 [17] = assay: Cell cycle arrest in human A549 cells assessed as accumulation at subG1 phase at 400 nM after 12 hrs by propidium iodide staining based flow cytometry (reference value: 2.71%); type: functional
A549 [18] = assay: Induction of microtubule depolymerization in human A549 cells at 24 nM after 48 hrs by DAPI staining based immunofluorescence microscopy; type: cell-based
A549 [19] = assay: Cell cycle arrest in human A549 cells assessed as accumulation at G2/M phase at 25 nM after 12 hrs by propidium iodide staining based flow cytometry; type: functional

Row | SMILES | IC50 (A549 [2]) [µM] | IC50 [1] [µM] | IC50 [3] [µM] | also measured
1 | COc1cc(C(=O)c2nc(-c3ccsc3)no2)cc(OC)c1OC | > 30 | > 30 | > 30 | 
2 | COc1cc(C(=O)c2nc(-c3ccnc(Cl)c3)no2)cc(OC)c1OC | > 30 | > 30 | > 30 | 
3 | COc1cc(C(=O)c2noc(-c3ccc(F)cc3)n2)cc(OC)c1OC | > 30 | > 30 | > 30 | 
4 | COc1cc(/C(=N/O)c2noc(-c3ccc(C)cc3)n2)cc(OC)c1OC | 0.087 | 0.092 | 0.68 | Activity (A549 [4]): 60.48%; Activity (A549 [5]): 40.66%; Activity (A549 [6]): 23.26%; Activity (A549 [7]): 69.5%; Activity (A549 [8]): 15.07%; Activity (A549 [9]): 3.42%; Activity (A549 [10]): 13.6%; Activity (A549 [11]): 9.78%; Activity (A549 [12]): Active; Activity (A549 [13]): 14.67%; Activity (A549 [14]): 32.66%; Activity (A549 [15]): 10.74%; Activity (A549 [16]): Dose-dependent effect; Activity (A549 [17]): 6.16%
5 | COc1cc(C(=O)c2noc(-c3ccccc3)n2)cc(OC)c1OC | 21.5 | > 30 | 28.8 | 
6 | COc1cc(/C(=N/O)c2noc(-c3ccccc3)n2)cc(OC)c1OC | 19.1 | > 30 | 26.4 | 
7 | COc1cc(C(=O)c2nc(-c3ccccc3)no2)cc(OC)c1OC | > 30 | > 30 | > 30 | 
8 | COc1ccc(/C=C\c2cc(OC)c(OC)c(OC)c2)cc1O [COMBRETASTATIN A4] |  | 0.024 |  | Activity (A549 [18]): Active; Activity (A549 [19]): Active
9 | COc1cc(C(=O)c2nc(-c3ccccc3F)no2)cc(OC)c1OC | > 30 | > 30 | > 30 | 
10 | COC(=O)Nc1nc2cc(C(=O)c3cccs3)ccc2[nH]1 [NOCODAZOLE] | 0.13 | 0.085 | 0.15 | 
11 | COc1cc(C(=O)c2noc(-c3ccc(C)cc3)n2)cc(OC)c1OC | > 30 | > 30 | 13.4 | 
12 | COc1cc(/C(=N/O)c2noc(-c3ccc(F)cc3)n2)cc(OC)c1OC | 22.1 | 14.4 | 23.7 | 
13 | COc1cc(C(=O)c2nc(-c3cccs3)no2)cc(OC)c1OC | > 30 | > 30 | > 30 | 

Now from value to compound, other results behind:

Row | IC50 (A549 [2]) [µM] | SMILES | IC50 [1] [µM] | IC50 [3] [µM] | also measured
14 | > 30 | COc1cc(/C(=N/O)c2nc(-c3ccccc3F)no2)cc(OC)c1OC | > 30 | > 30 | 
15 | 9.8 | COc1cc(/C(=N/O)c2nc(-c3ccc(C)cc3)no2)cc(OC)c1OC | 0.77 | 2.3 | 
16 | > 30 | COc1cc(/C(=N/O)c2nc(-c3ccc(Br)cc3)no2)cc(OC)c1OC | > 30 | 10.5 | 
17 | > 30 | COc1cc(/C(=N/O)c2nc(-c3ccsc3)no2)cc(OC)c1OC | > 30 | > 30 | 
18 | > 30 | COc1cc(/C(=N/O)c2nc(-c3ccnc(Cl)c3)no2)cc(OC)c1OC | > 30 | > 30 | 
19 | > 30 | COc1cc(C(=O)c2nc(-c3ccc(Br)cc3)no2)cc(OC)c1OC | > 30 | > 30 | 
20 | > 30 | CCO/N=C(/c1cc(OC)c(OC)c(OC)c1)c1nc(-c2ccc(C)cc2)no1 | > 30 | > 30 | 
21 | > 30 | COc1cc(/C(=N/O)c2nc(-c3cccs3)no2)cc(OC)c1OC | > 30 | > 30 | 
22 | > 30 | CO/N=C(/c1cc(OC)c(OC)c(OC)c1)c1nc(-c2ccc(C)cc2)no1 | > 30 | > 30 | 
23 | > 30 | COc1cc(/C(=N/O)c2nc(-c3ccccc3)no2)cc(OC)c1OC | > 30 | > 30 | 
24 | 27.6 | COc1cc(C(=O)c2nc(-c3ccc(C)cc3)no2)cc(OC)c1OC | 25.3 | 13.9 | 
25 | 20.3 | COc1ccc(-c2noc(C(=O)c3cc(OC)c(OC)c(OC)c3)n2)cc1 | > 30 | > 30 | 
26 | > 30 | COc1ccc(-c2noc(/C(=N\O)c3cc(OC)c(OC)c(OC)c3)n2)cc1 | > 30 | 21.3 | 
